This is an account of results in US20250109139A1, “TRICYCLIC COMPOUND, AND PREPARATION METHOD THEREFOR AND USE THEREOF” (SHANGHAITECH UNIVERSITY, priority 2022, published 2025).

Read-outs that look alike come from different tables or passages of the source.

Data set [1] in a line: Brain permeability test, single intraperitoneal dose in C57 male mice. Format: in vivo. The settings on record: intraperitoneal 5 mg/kg; for Kp at 0.5 h / Kp at 2 h / Kp at 4 h / Kp / concentration at 0.5 h / concentration at 2 h / concentration at 4 h / AUC: male, C57, mouse; for Kp at 0.5 h / Kp at 2 h / Kp at 4 h / Kp: brain/plasma; for Kp at 0.5 h / Kp at 2 h / Kp at 4 h / Kp / AUC: ip; for Kp at 0.5 h: read-out: 0.5 h ratio (brain/plasma); for Kp at 2 h: read-out: 2.0 h ratio (brain/plasma); for Kp at 4 h: read-out: 4.0 h ratio (brain/plasma); for Kp: read-out: AUC ratio (brain/plasma). As for the experimental part: Using the same method as that in the pharmacokinetic experiment, 0.030 mL of blood was collected from the orbit of each animal at 0.5 hours, 2.0 hours, and 4.0 hours, and anticoagulated with EDTA-K2. Blood samples were placed on ice after collection, and plasma was separated by centrifugation within 30 minutes (centrifugation conditions: 5000 rpm, 10 minutes, 4° C.). The collected plasma was stored at −80° C. before analysis. […] The homogenate was stored at −80° C. before analysis. Drug concentrations in plasma and brain tissues were analyzed by LC/MS/MS for comparison.

For the next data set, the target named is dopamine D2 receptors (Homo sapiens (Human), UniProt P14416). The data set can be described thus: Dopamine D2 receptor Gαi1 BRET (G protein trimer dissociation). Format: cell-based. As to conditions: for Emax: relative to endogenous ligand dopamine, read-out: Gαi1 BRET Emax % ± SEM. The gist of the method:
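G-protein assay: cells co-transfected with D2 receptor, Gαi1-Rluc, Gβ3 and Gγ9-GFP (1 μg each); β-arrestin2 assay: D2-Rluc, GRK2 and GFP2-β-arrestin2 co-transfected. Cells were reseeded after one day and tested on day three. Drug dilution series were added in duplicate with coelenterazine 400a (5 μM final), and the BRET signal was read.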
(In general: In BRET a luciferase serves as donor, and the signal depends on an acceptor being close.)

The test system of data set [2] is MK801-induced hyperlocomotion in mice. The data set can be described thus: Open field test, MK801-induced hyperlocomotion (schizophrenia-like model). Format: in vivo, C57B6 male mice. The settings on record: for inhibition of MK801-induced hyperlocomotion in mice (in words): at different doses. As for the experimental part:
Experimental method: The experimental animals were C57B6 male mice, n=8 in each group. In this model, C57B6 mice were used as experimental animals. Hyperlocomotion of the mice in open field was induced by acute injection of a NMDA antagonist MK801, and modeled to test the inhibitory effect of different compounds on hyperlocomotion phenotype induced by MK801 All mouse behavior experiments were carried out during the light period. The whole process was recorded by the camera, and locomotive data were tracked and analyzed by behavioral tracking software. The compounds were administered intraperitoneally. Immediately after the injection, the mice entered the open field and their movement trajectories were recorded by the camera. After 30 minutes, the mice received 0.2 mg/kg of MK801 by intraperitoneal injection and returned to the open field immediately after administration, and the movement trajectories were further recorded for 120 minutes. The accumulative travelled distance of the mice was counted in a 5-minute bin. Data statistics were performed using Student-t-test analysis, *p<0.05, **p<0.01, ***p<0.001, ****p<0.0001. The total travelled distance of the mice in the 0-45 minute interval after administration of the compounds of the present disclosure at different doses in combination with MK801 (0.2 mg/kg) is shown in Table 10.

The target of the next data set is 5-HT2A receptors (Homo sapiens (Human), UniProt P28223). The data set can be described thus: 5-HT2A receptor radioligand competition binding assay ([3H]-ketanserin). As to conditions: for Ki: read-out: Ki. As for the experimental part: The affinity of the compounds of the present disclosure for 5-HT2A receptors was determined by a radioligand competition binding assay. In the first step, a cell membrane component containing specific 5-HT2A receptor was prepared. A 10 cm dish was used for transfection with […] of 5-HT2A receptors and 40 μL of PEI. After 48 hours, the 10 cm dish was taken out from the cell incubator and the cultured cells had expressed the 5-HT2A receptors. A vacuum pump was used to suck off the culture medium, 3 mL of lysis buffer was added to each culture dish, and the cells were placed in a 4° C. cold room for 10 minutes. After the cells were detached, the cells were transferred to a 15 mL centrifuge tube and centrifuged at 1500 rpm for 5 minutes at 4° C., and the supernatant was discarded. The cell pellet was transferred to a tissue homogenizer, and 3 mL of lysis buffer was added and fully ground until the cells were broken. Then, cell suspension was equally aliquoted into several EP tubes, centrifuged at 12000 rpm for 5 minutes at 4° C., and the supernatant was discarded. The precipitate was the cell membrane component containing the 5-HT2A receptors. […] First, a standard binding buffer was added to the cell membrane component containing the 5-HT2A receptors, and the cell membrane was disrupted and resuspended with an electric tissue homogenizer. 30 μL of membrane protein suspension was added to each well of a 96-well plate. Then, 30 μL of different drugs were added to the 96-well plate sequentially from bottom to top to ensure that the final drug concentrations were 10^−5 M, 10^−6 M, 10^−7 M, 10^−8 M, 10^−9 M, and 0 M, with two replicates per treatment. Next, 30 μL of [^3H]-ketanserin was added to each well of the 96-well plate. The plate was incubated at room temperature in the dark for 2 hours. Detection was conducted. The machine readout value reflected the amount of [^3H]-ketanserin bound on the membrane, and after further data processing, the affinity Ki values of different compounds for the 5-HT2A receptors were obtained.
Chain of 5-HT2A receptors (P28223 whole entry): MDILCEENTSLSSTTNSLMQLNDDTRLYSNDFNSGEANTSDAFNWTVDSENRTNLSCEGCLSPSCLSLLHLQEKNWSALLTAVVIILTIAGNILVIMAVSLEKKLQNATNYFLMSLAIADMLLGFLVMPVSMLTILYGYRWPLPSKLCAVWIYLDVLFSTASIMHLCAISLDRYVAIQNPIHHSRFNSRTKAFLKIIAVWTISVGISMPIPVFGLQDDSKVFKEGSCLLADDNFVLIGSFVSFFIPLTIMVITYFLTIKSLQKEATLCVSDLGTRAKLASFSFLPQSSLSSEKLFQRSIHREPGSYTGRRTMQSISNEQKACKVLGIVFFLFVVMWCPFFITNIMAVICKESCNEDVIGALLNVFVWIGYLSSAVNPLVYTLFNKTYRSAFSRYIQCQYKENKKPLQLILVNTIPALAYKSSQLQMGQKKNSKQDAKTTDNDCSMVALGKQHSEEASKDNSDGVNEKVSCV
On the technique in general: Displacement assays read how much labelled ligand stays bound in the presence of the test substance.

Setting [3] is: brain, read-out: 0.5 h brain concentration.
The mark [4] stands for this setting: plasma, read-out: 0.5 h plasma concentration.
[5] abbreviates: brain, read-out: 2.0 h brain concentration.
The mark [6] stands for this setting: plasma, read-out: 2.0 h plasma concentration.
Where [7] appears, read: brain, read-out: 4.0 h brain concentration.
Setting [8] is: plasma, read-out: 4.0 h plasma concentration.
[9] abbreviates: read-out: Gαi1 BRET pEC50 ± SEM (converted).
Setting [10] is: unit printed only in Cariprazine cell, read-out: Gαi1 BRET EC50.
Setting [11] is: MK801 0.2 mg/kg + compound 0.0156 mg/kg i.p.
[12] abbreviates: MK801 0.2 mg/kg + compound 0.0625 mg/kg i.p.
Setting [13] is: MK801 0.2 mg/kg + compound 0.25 mg/kg i.p.
The mark [14] stands for this setting: [3H]-ketanserin, 293T membranes.

Chain of dopamine D2 receptors (P14416 whole entry): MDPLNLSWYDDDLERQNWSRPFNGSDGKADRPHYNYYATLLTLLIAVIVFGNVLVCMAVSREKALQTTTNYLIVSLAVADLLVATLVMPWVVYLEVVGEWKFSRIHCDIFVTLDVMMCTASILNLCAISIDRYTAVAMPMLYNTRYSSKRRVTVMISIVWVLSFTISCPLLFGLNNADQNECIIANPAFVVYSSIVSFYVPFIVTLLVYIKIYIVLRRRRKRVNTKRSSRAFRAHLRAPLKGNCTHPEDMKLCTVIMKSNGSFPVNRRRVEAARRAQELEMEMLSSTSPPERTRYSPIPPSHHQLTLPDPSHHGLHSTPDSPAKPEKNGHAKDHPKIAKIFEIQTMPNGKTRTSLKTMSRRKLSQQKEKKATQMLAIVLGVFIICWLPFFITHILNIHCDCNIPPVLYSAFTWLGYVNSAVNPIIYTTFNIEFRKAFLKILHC

The AUC is the area under the concentration-time curve, a measure of exposure. A high value points to more exposure. The Emax is the size of the effect at its maximum, as opposed to the concentration needed. In turn, `COc1cccc2c1cc1n2CCN(CCCCOc2ccc3c(c2)NC(=O)CC3)C1` [I-C2, 7-(4-(9-methoxy-3,4-dihydropyrazino[1,2-a]indol-2(1H)-yl)butoxy)-3,4-dihydroquinolin-2(1H)-one] had an AUC brain in data set [1] (brain) of 5561 ng·h/mL. For the same compound, the Kp at 0.5 h in data set [1] is 0.855. Further, in data set [1], the Kp at 2 h worked out at 0.834. Besides, the Kp at 4 h in data set [1] came to 0.931. The Kp in data set [1] was 0.853. Also, the concentration at 0.5 h was 2800 ± 208 ng/mL in data set [1] (setting [3]) and 3280 ± 456 ng/mL in data set [1] (setting [4]). For the same compound, the values for the concentration at 2 h in data set [1] (setting [5]) and in data set [1] (setting [6]) were 1260 ± 279 ng/mL and 1510 ± 545 ng/mL, respectively. The concentration at 4 h in data set [1] (setting [7]) stood at 599 ± 54 ng/mL; in data set [1] (setting [8]), 558 ± 100 ng/mL. In data set [1] (plasma), this compound gave an AUC of 6520 ng·h/mL. In addition, the values for the EC50 at dopamine D2 receptors (setting [9]) and at dopamine D2 receptors (setting [10]) were 0.0447 µM and 0.0463 µM, respectively. Moreover, the Emax at dopamine D2 receptors turned out to be 81%.

The Ki is the dissociation constant of the complex between target and ligand, obtained from inhibition or displacement. On to `COc1cccc2c3c(oc12)CN(CCCCOc1ccc2ccc(=O)[nH]c2c1)CC3` [I-A1, 7-(4-(8-methoxy-3,4-dihydrobenzofuro[2,3-c]pyridin-2(1H)-yl)butoxy)quinolin-2(1H)-one], for which the “Distance travelled in 45 minutes” value in data set [2] (setting [11]) is 9023 cm; in data set [2] (setting [12]), 10706 cm; in data set [2] (setting [13]), 3630 cm. Moreover, the “inhibition of MK801-induced hyperlocomotion in mice (in words)” value (shortened to “inhibition”) in data set [2] was “significantly inhibit”. At 5-HT2A receptors, the “affinity for 5-HT2A receptors (in words)” value is “very weak affinity”. In addition, the “pKi ± SEM” value at 5-HT2A receptors (setting [14]) is reported as “(5.74 ± 0.03)”. Moreover, the Ki at 5-HT2A receptors (setting [14]) was found to be 1.79 µM. The values for the concentration at 0.5 h in data set [1] (setting [3]) and in data set [1] (setting [4]) were 1110 ± 43 ng/mL and 2220 ± 447 ng/mL, respectively. Also, the figures for the concentration at 2 h in data set [1] (setting [5]) and in data set [1] (setting [6]) were 236 ± 25 ng/mL and 397 ± 26.3 ng/mL, respectively. In addition, the figures for the EC50 on dopamine D2 receptors (setting [9]) and at dopamine D2 receptors (setting [10]) were 0.0234 µM and 0.0488 µM, respectively. Further, the Emax at dopamine D2 receptors is 55%.

On to `COc1cccc2c3c([nH]c12)CN(CC[C@H]1CC[C@H](NC(=O)N(C)C)CC1)CC3` [I-B7, 3-(trans-4-(2-(8-methoxy-1,3,4,9-tetrahydro-2H-pyrido[3,4-b]indol-2-yl)ethyl)cyclohexyl)-1,1-dimethylurea], for which the “Distance travelled in 45 minutes” value stood at 13668 cm in data set [2] (setting [13]), 10199 cm in data set [2] (MK801 0.2 mg/kg + compound 1 mg/kg i.p.) and 4360 cm in data set [2] (MK801 0.2 mg/kg + compound 4 mg/kg i.p.). In addition, the “inhibition” value in data set [2] is “significantly inhibit”. Further, on 5-HT2A receptors, the “affinity for 5-HT2A receptors (in words)” value was “very weak affinity”. Also, the Ki on 5-HT2A receptors (setting [14]) is 3.51 µM. The Kp at 0.5 h in data set [1] was 0.656. Also, in data set [1], the Kp at 2 h came out at 0.643. Also, the results for the concentration at 0.5 h in data set [1] (setting [3]) and in data set [1] (setting [4]) were 392 ± 15 ng/mL and 598 ± 19 ng/mL, respectively. Besides, the concentration at 2 h was 73 ± 129 ng/mL in data set [1] (setting [5]) and 114 ± 67.9 ng/mL in data set [1] (setting [6]). For the same compound, the values for the EC50 on dopamine D2 receptors (setting [9]) and on dopamine D2 receptors (setting [10]) were 0.0112 µM and 0.017 µM, respectively. The Emax on dopamine D2 receptors amounted to 21%.

In turn, `COc1cccc2c1cc1n2CCN(CCCCOc2ccc3ccc(=O)[nH]c3c2)C1` [I-C1, 7-(4-(9-methoxy-3,4-dihydropyrazino[1,2-a]indol-2(1H)-yl)butoxy)quinolin-2(1H)-one] came in with an AUC brain in data set [1] (brain) of 3385 ng·h/mL. In data set [1], the Kp at 0.5 h was determined as 0.478. Further, in data set [1], the Kp at 2 h is 0.663. Besides, the Kp at 4 h in data set [1] was determined as 0.541. In addition, the Kp in data set [1] was 0.538. Moreover, the concentration at 0.5 h in data set [1] (setting [3]) came to 1940 ± 63 ng/mL; in data set [1] (setting [4]), 4060 ± 367 ng/mL. The concentration at 2 h in data set [1] (setting [5]) is 732 ± 56 ng/mL; in data set [1] (setting [6]) it was 1100 ± 89 ng/mL. For the same compound, the concentration at 4 h in data set [1] (setting [7]) is 161 ± 55 ng/mL; in data set [1] (setting [8]), 297 ± 106 ng/mL. Also, in data set [1] (plasma), the AUC is 6290 ng·h/mL. Moreover, the EC50 at dopamine D2 receptors (setting [9]) is 0.00631 µM; at dopamine D2 receptors (setting [10]), 0.00794 µM. Also, the Emax at dopamine D2 receptors came out at 72%.

Consider `COc1cccc2c3c(oc12)CN(CC[C@H]1CC[C@H](NC(=O)N(C)C)CC1)CC3` [I-A12, 3-(trans-4-(2-(8-methoxy-3,4-dihydrobenzofuro[2,3-c]pyridin-2(1H)-yl)ethyl)cyclohexyl)-1,1-dimethylurea], for which the “Distance travelled in 45 minutes” value in data set [2] (setting [11]) is reported as 12729 cm; in data set [2] (setting [12]) it was 5648 cm; in data set [2] (setting [13]) it was 2267 cm. For the same compound, in data set [2], the “inhibition” value was “significantly inhibit”. The Kp at 0.5 h in data set [1] is 1.69. In addition, in data set [1], the Kp at 2 h stood at 2.26. For the same compound, the figures for the concentration at 0.5 h in data set [1] (setting [3]) and in data set [1] (setting [4]) were 1400 ± 220 ng/mL and 830 ± 119 ng/mL, respectively. Besides, the concentration at 2 h amounted to 455 ± 61 ng/mL in data set [1] (setting [5]) and 202 ± 56.2 ng/mL in data set [1] (setting [6]). In addition, at dopamine D2 receptors, the Emax was 70%. Further, the EC50 at dopamine D2 receptors (setting [10]) came out at 0.00138 µM.
